Experimental data published in the NIST ThermoML archive (doi:10.1016/j.jct.2016.04.019).
Numbers after ± are expanded uncertainties.

Test: mn = molality of the nth substance listed, in mol/kg
Settings: 298.15 K, 101.3 kPa, Liquid, Frequency=0.0002 MHz, Alternating current cell with electrodes

CCCCCCCCCCCCOS(=O)(=O)[O-].[Na+] [sodium dodecyl sulfate] + O
Settings	electrical conductivity [S/m]
m1 = 0.001	0.0071 ± 0.0001
m1 = 0.00201	0.0137 ± 0.0003
m1 = 0.00301	0.0209 ± 0.0004
m1 = 0.00401	0.0275 ± 0.0004
m1 = 0.00501	0.034 ± 0.0004
m1 = 0.00602	0.041 ± 0.0004

C[C@H](CCC(=O)[O-])[C@H]1CC[C@H]2[C@@H]3[C@H](O)C[C@@H]4C[C@H](O)CC[C@]4(C)[C@H]3C[C@H](O)[C@]12C.[Na+] [sodium cholate] + O
Settings	electrical conductivity [S/m]
m1 = 0.00042	0.0033 ± 0.0003
m1 = 0.00083	0.0062 ± 0.0003
m1 = 0.00124	0.009 ± 0.0006
m1 = 0.00164	0.0118 ± 0.0006
m1 = 0.00205	0.0144 ± 0.0006
m1 = 0.00245	0.0171 ± 0.0006
m1 = 0.00284	0.0197 ± 0.0007
m1 = 0.00324	0.0225 ± 0.0007
m1 = 0.00363	0.025 ± 0.0006
m1 = 0.00401	0.0275 ± 0.0006
m1 = 0.0044	0.0299 ± 0.0006
m1 = 0.00478	0.0322 ± 0.0006
m1 = 0.00516	0.0345 ± 0.0006
m1 = 0.00553	0.0366 ± 0.0007
m1 = 0.0059	0.0388 ± 0.0007
m1 = 0.00627	0.0409 ± 0.0007
m1 = 0.00664	0.043 ± 0.0007
m1 = 0.007	0.0451 ± 0.0007
m1 = 0.00736	0.0473 ± 0.0007
m1 = 0.00772	0.0493 ± 0.0007
m1 = 0.00807	0.0512 ± 0.0007
m1 = 0.00842	0.0532 ± 0.0008
m1 = 0.00877	0.0553 ± 0.0008
m1 = 0.00912	0.0573 ± 0.0008
m1 = 0.00946	0.0591 ± 0.0008
m1 = 0.00981	0.061 ± 0.0008
m1 = 0.01015	0.063 ± 0.0016
m1 = 0.01048	0.0649 ± 0.0015
m1 = 0.01082	0.0668 ± 0.0015
m1 = 0.01115	0.0687 ± 0.0016
m1 = 0.01148	0.0706 ± 0.0016
m1 = 0.0118	0.0724 ± 0.0016
m1 = 0.01213	0.0743 ± 0.0016
m1 = 0.01245	0.0762 ± 0.0016
m1 = 0.01277	0.078 ± 0.0016
m1 = 0.01309	0.0798 ± 0.0016
m1 = 0.0134	0.0816 ± 0.0016
m1 = 0.01371	0.0834 ± 0.0017
m1 = 0.01402	0.0853 ± 0.0017
m1 = 0.01433	0.0871 ± 0.0017
m1 = 0.01464	0.0889 ± 0.0017
m1 = 0.01494	0.0906 ± 0.0017
m1 = 0.01524	0.0924 ± 0.0017
m1 = 0.01554	0.0942 ± 0.0017
m1 = 0.01584	0.0959 ± 0.0017
m1 = 0.01614	0.0976 ± 0.0017
m1 = 0.01643	0.0993 ± 0.0018
m1 = 0.01672	0.101 ± 0.0018
m1 = 0.01701	0.103 ± 0.0018
m1 = 0.0173	0.104 ± 0.0018
